Entries after “also recorded” stand apart in the source; their conditions may differ. Where two headings read alike, the source gives them in different places.

Results on 24 compounds are retold here after US7125958B1, “Malaria polypeptides” (priority 1997, dated 2006).

Series [1] has as its system FCR3S1 rosettes. Put plainly: Rosette disruption assay, laboratory strain FCR3S1. The class given is cell-based, Plasmodium falciparum. Particulars: for reduction of rosette disruption efficiency compared to native heparin: modified heparin; for rosette disrupting effect of heparin disaccharides: not shown; for rosette reversion by disaccharide: at 45 mM; for sensitivity of FCR3S1 rosettes to the compound: 30 minutes at 37° C. From the text: (§1) Parasites and rosetting—Two distinct highly resetting P. Falciparum laboratory stains were used: FCR3S1 (previously named R^+PA1) and TM 284 (isolated in Thailand, 1990). Parasites were cultivated according to standard procedures (Udomsangpetch et al. 1989). Field isolates were obtained from patients attending the Albert Schweitzer Hospital, Lambaréné, Gabon between April and June 1996. […] A venous or capillary blood sample was taken after patients or parents informed consent. Blood was washed three times with RPMI and cultivated according to standard procedures (Udomsangpetch et al. 1989). Assessment for parasite growth and resetting was made every 6–8 hours using a Leitz UV-light microscope. Briefly, an aliquot of parasite culture was mixed with a small amount of acridine orange and the sample was analyzed. Assays were performed on rosetting isolates when the majority of parasites in culture had reached the trophozoite stage. The resetting rate was expressed as the number of infected erythrocytes in rosettes relative to the total number of late stage infected erythrocytes. Three hundred infected cells were counted. Parasitemia was calculated as the number of infected erythrocytes relative to the number of uninfected erythrocytes.
(§2) For laboratory stains, parasite cultures with rosetting rates of 50–70% and parasitemia 5–8% were used Aliquots (12.5–25 μl) of parasite cultures were mixed with equal amounts of sulfated glycoconjugate compound in RPMI in a 96-well microtiter plate, at final concentrations indicated After incubation for 30 minutes at 37° C. assessment for resetting was made as described above. The resetting rate was compared to that of culture mixed with RPMI.

For series [2], the system named is FCR3S1 rosetting. The format is cell-based, Plasmodium falciparum. To be noted: compared to mock treated control cultures.
Series [3] has as its system TM 284 rosetting. The class given is cell-based, Plasmodium falciparum. To be noted: compared to mock treated control cultures.
In series [4] the test system is uninfected RBC rosette binding capacity. The class given is cell-based, Plasmodium falciparum. Particulars: compared to non-treated RBC.
In series [5] the test system is FCR3S1.2 rosettes. Put plainly: Rosette disruption assay, FCR3S1.2. The format is cell-based, Plasmodium falciparum. To be noted: incubated with GAGs for 1 h at 37° C., compared to control culture. The protocol: FIG. 5. Effect of glycosaminoglycans (GAGS) on P. falciparum resetting. […] FCR3S1.2 cultures were incubated with GAGs for 1 h at 37° C. and compared to control culture. Results are the means and standard error of three separate experiments.
The assay was performed essentially as described (Carlson, J. and M. Wahlgren, 1992. Plasmodium falciparum erythrocytes resetting is mediated by promiscuous lectin-like interactions. J. Exp. Med., 176, 1311–1317). The recombinant fission proteins ([…] in PBS of DBL-1-GST or ATS-GST) were added to 25 μl aliquots of a ≈80% rosetting culture of FCR3S1.2 in a micro-titre plate. The mixtures were incubated for 30 min. at 37° C. after which the rosetting rate was scored and compared to mock treated controls after staining with acridine orange.

For series [6], the system named is DBL-1-GST fusion protein (FCR3S1.2-PfEMP1). Put plainly: Heparin blocking assay: inhibition of DBL-1-GST binding to heparin-sepharose by GAGs. The arrangement: species or system Plasmodium falciparum. Particulars: GAG titrated from 10 to 0.5 mg/ml, SDS-PAGE. As for the experimental part:
The potential binding of the fusion proteins to heparin was studied by mixing either DBL-1-GST, ATS-GST fusion protein or GST alone (20 μl, 150 μg/ml in PBS) with 20 μl of 50% heparin-sepharose (Pharmacia) and incubating for 5 min at room temperature in the absence of serum; binding to uncoupled sepharose was used as control. The heparin-sepharose and protein mixture was washed 3 times in large volumes of PBST buffer (PBS plus 0.05% Tween-20) before extracting bound proteins in loading-buffer for 10% SDS-PAGE. Inhibition of DBL-1-GST fission protein binding to heparin with heparin, heparan sulfate or chondroitin sulfate (Lövens Kemiske Fabrik, Denmark, more than 90% pure) was also tested. Twenty μl of 150 μg/ml DBL-1-GST fusion protein was mixed separately for 5 minutes with an equal volume of heparin, heparan sulfate, or chondroitin sulfate, titrated from 10 to 0.5 mg/ml, before the addition of heparin sepharose. The inhibitory activities were checked by SDS-PAGE.

The subject of series [7] is TM 284 rosettes. Put plainly: Rosette disruption assay, laboratory strain TM 284. To be noted: for sensitivity of TM 284 rosettes to the compound: relative to FCR3S1. The class given is cell-based, Plasmodium falciparum.
From the text: as §1, §2

Series [8] deals with rosettes of wild isolates. Put plainly: Rosette disruption assay, wild (patient) isolates. The format is cell-based, Plasmodium falciparum. Particulars: for relative effectiveness as rosette disrupter on the whole collection of wild isolates: thirtytwo patient isolates; for rosette disruption of wild / fresh isolates: both groups of isolates.
From the text: as §1, §2

The test system of series [9] is DBL-1-GST fusion protein (FCR3S1.2-PfEMP1). Put plainly: Erythrocyte blocking assay: inhibition of DBL-1-GST binding to RBC by GAGs. The format is cell-based, Plasmodium falciparum. Particulars: GAG titrated from 20 to 8 mg/ml. As for the experimental part: Ten-well immunofluorescence glass-slides were precoated with 10% poly-L-lysine in PBS for 30 min. Monolayers of RBC were made by addition of 20 μl of 0.5% 3× washed bloodgroup O Rh^+RBC in PBS to each well. Twenty μl DBL-1-GST, ATS-GST or GST alone (80 μg/ml) in PBS was added to the wells for 30 min. The DBL-1-GST fusion protein was in subsequent experiments incubated in the presence of heparin, heparan sulfate or chondroitin sulfate (titrated from 20 to 8 mg/ml) to study the inhibitory activity of each GAG. Slides were washed 3 times with PBS and the fusion protein-binding was detected with the biotin-labelled anti-GST mAb and an EXTRAVIDIN (a modified avidin) FITC conjugate (Sigma). The fluorescence was assessed in a Nikon Optiphot-2 UV microscope, using a ×10 ocular and an oil lens with a magnification of ×100.

The test system of series [10] is rosettes of fresh P. falciparum-isolates. To be noted: cited from earlier work.

Consider 2-O-desulfated heparin, for which the “reduction of rosette disruption efficiency compared to native heparin” value in series [1] is roughly 10 fold.

For the compound 6-O-desulfated heparin, the “reduction of rosette disruption efficiency compared to native heparin” value in series [1] is recorded as roughly 10 fold.

Regarding `O=C(O)C1=C[C@H](O)[C@@H](OS(=O)(=O)O)[C@H](O[C@H]2[C@H](O)[C@@H](NS(=O)(=O)O)[C@@H](O)O[C@@H]2COS(=O)(=O)O)O1` [I-S, ΔHexA(2-OSO3)-GlcNSO3(6-OSO3)], the “rosette disruption by disaccharide titrated against heparin” value in series [1] (30 mM disaccharide, preliminary experiment) is on record as “disrupted to the same extent as with heparin at 1 mg/ml”.

Take `N[C@H]1C(O)O[C@H](COS(=O)(=O)O)[C@@H](O[C@@H]2OC(C(=O)O)=C[C@H](O)[C@H]2O)[C@@H]1O` (stereo partly drawn) [II-H, ΔHexA-GlcN(6-OSO3)]: the “rosette disrupting effect of heparin disaccharides” value (“rosette disrupting effect” below) in series [1] was “no rosette disrupting effect”.

As for `NC1C(O)OC(CO)C(OC2OC(C(=O)O)=CC(O)C2OS(=O)(=O)O)C1O` (stereo not drawn) [III-H, ΔHexA(2-OSO3-GlcN)], the “rosette disrupting effect” value in [1] is “no rosette disrupting effect”.

Turning to `CC(=O)NC1C(O)OC(CO)C(OC2OC(C(=O)O)=CC(O)C2O)C1O` (stereo not drawn) [IV-A, ΔHexA-ClcNAc], the “rosette reversion by disaccharide” value in series [1] is listed as “completely lacked effect”.

With `N[C@H]1C(O)O[C@H](CO)[C@@H](O[C@@H]2OC(C(=O)O)=C[C@H](O)[C@H]2O)[C@@H]1O` (stereo partly drawn) [IV-H, ΔHexA-GlcN], the “rosette disrupting effect” value in [1] is listed as “no rosette disrupting effect”.

For `O=C(O)C1=C[C@H](O)[C@@H](O)[C@H](O[C@H]2[C@H](O)[C@@H](NS(=O)(=O)O)C(O)O[C@@H]2CO)O1` (stereo partly drawn) [IV-S, ΔHexA-GlcNSO3], in series [1], the “rosette reversion by disaccharide” value is given as “complete rosette reversion”.

For `CC(=O)N[C@H]1C(O)O[C@H](COS(=O)(=O)O)[C@@H](O)[C@@H]1O` (stereo partly drawn) [N-acetylated glucosamine with an O-sulfate ester at C-6], the “rosette disrupting activity of monosaccharides” value (shortened to “rosette disrupting activity”) in series [1] is given as “Some activity”.

Regarding `O=S(=O)(O)NC1C(O)OC(CO)C(O)C1O` (stereo not drawn) [N-sulfated galactosamine], the “rosette disrupting activity” value in [1] was “lacked rosette disrupting activity and none and does not”.

As for `O=S(=O)(O)N[C@H]1C(O)O[C@H](CO)[C@@H](O)[C@@H]1O` (stereo partly drawn) [N-sulfated glucosamine], the “rosette disrupting activity” value in [1] was “total rosette disruption; also recorded: abolishes rosetting”; in series [1] (listed as N-sulfated mono-saccharide glucosamine), “good anti-rosetting activity”.

Consider `[O-][I+3]([O-])([O-])O` [Sodium periodate], for which, in series [2], the “change in rosetting after treatment of whole cultures, FCR3S1” value (shortened to “change in rosetting … FCR3S1”) was “intermediate effect”. Also, the “change in rosetting after treatment of whole cultures, TM 284” value (“change in rosetting … TM 284” below) in [3] was “intermediate effect”. Besides, in series [4], the “decrease of rosette binding capacity of treated uninfected RBC” value is 4 fold.

With Chondroitin sulfate B, the “disruptive activity of GAGs on FCR3S1.2 rosettes” value (from here on “disruptive activity of GAGs”) in series [5] is reported as “slight effect only at high concentrations”.

With chondroitin sulfate, the “inhibition of DBL-1-GST binding to heparin-sepharose” value (“inhibition … to heparin-sepharose” below) in series [6] is recorded as “but not with chondroitin sulfate”. For the same compound, the “sensitivity of FCR3S1 rosettes to the compound” value (shortened to “sensitivity of FCR3S1 rosettes”) in series [1] is recorded as “little or no effect”. For the same compound, in series [7], the “sensitivity of TM 284 rosettes to the compound” value (shortened to “sensitivity of TM 284 rosettes”) is “relatively higher sensitivity”. Further, the “relative effectiveness as rosette disrupter on the whole collection of wild isolates” value (shortened to “relative effectiveness”) in series [8] is given as “the least effective”.

In the case of chondroitin sulfate A, the “disruptive activity of GAGs” value in series [5] is “neither chondroitin sulfate A, keratan sulfate, nor hyaluronic acid had any effect”.

On to chymotrypsin, for which, in series [2], the “change in rosetting … FCR3S1” value is given as “rosetting was abolished completely”. Besides, the “change in rosetting … TM 284” value in [3] is “rosetting was abolished completely”.

Turning to dermatan sulfate, the “sensitivity of FCR3S1 rosettes” value in [1] is recorded as “little or no effect”. Besides, the “sensitivity of TM 284 rosettes” value in [7] is reported as “relatively higher sensitivity”. Besides, in series [8], the “relative effectiveness” value is recorded as “intermediate position”.

In the case of dextran sulfate, in series [8], the “rosette disruption of wild / fresh isolates” value is given as “much less effective that GAGs in most of the strains” and the “relative effectiveness” value is on record as “intermediate position”.

Turning to fucoidan, in [8], the “rosette disruption of wild / fresh isolates” value is given as “strong rosette disrupter; also recorded: disrupted rosettes of almost all fresh isolates” and the “relative effectiveness” value was “most effective rosette disrupter for most isolates”.

On to heparan sulfate, for which the “inhibition … to heparin-sepharose” value in series [6] is given as “dose-dependently be competed out”. Besides, in [9], the “inhibition of DBL-1-GST binding to erythrocytes” value is on record as “could be inhibited with small amounts”. Besides, the “disruptive activity of GAGs” value in series [5] was “sensitive”. In series [1], the “sensitivity of FCR3S1 rosettes” value was “high sensitivity”. For the same compound, the “sensitivity of TM 284 rosettes” value in series [7] is reported as “less sensitive”. The “relative effectiveness” value in [8] is on record as “intermediate position”.

Regarding heparin, in [6], the “inhibition … to heparin-sepharose” value is reported as “dose-dependently be competed out”. The “inhibition of DBL-1-GST binding to erythrocytes” value in [9] is given as “could be inhibited with small amounts”. For the same compound, the “disruptive activity of GAGs” value in series [5] is on record as “sensitive”. Moreover, the “sensitivity of FCR3S1 rosettes” value in [1] was “high sensitivity”. Further, the “efficiency of heparin chain relative to disaccharide I-S, weight basis” value in [1] (heparin 1 mg/ml vs I-S 30 mM) is recorded as “around 20 fold”. In addition, in series [1] (heparin ≃70 μM vs I-S 30 mM), the “efficiency of heparin chain relative to disaccharide I-S, molar basis” value is listed as “around 500 fold”. For the same compound, the rosettes disrupted in series [7] (at 1 mg/ml (not shown)) is given as 80%. In [7], the “sensitivity of TM 284 rosettes” value is “less sensitive”. In addition, the “relative effectiveness” value in series [8] is on record as “intermediate position”. For the same compound, the “fresh isolates whose rosettes were disrupted” value in [10] (54 fresh isolates) is 50%. The “number of fresh isolates whose rosettes were disrupted” value in series [10] (out of 54 fresh isolates) is recorded as 27.

With hyaluronic acid, the “disruptive activity of GAGs” value in series [5] is recorded as “neither chondroitin sulfate A, keratan sulfate, nor hyaluronic acid had any effect”.

Take keratan sulfate: in series [5], the “disruptive activity of GAGs” value was “neither chondroitin sulfate A, keratan sulfate, nor hyaluronic acid had any effect”.

For the compound trypsin, the “change in rosetting … FCR3S1” value in series [2] was “rosetting was abolished completely”. Further, in series [3], the “change in rosetting … TM 284” value is “rosetting was abolished completely”.
